PubChem BioAssay AID248 (DTP/NCI, 2004)
Where “and” joins values, the source holds several entries; their conditions need not be identical. Identical values can stand only once. Toxic doses and inconclusive results are not listed.

Test system: L1210 leukemia ip in BDF1 mice, survival T/C
Experiment: NCI In Vivo Anticancer Drug Screen. Data for tumor model L1210 Leukemia (intraperitoneal) in B6D2F1 (BDF1) mice
Details: endpoint: mean survival time, higher = longer survival
Summary of the method: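 Value reflects the ratio of survival in compound-treated mice to survival in vehicle-treated controls, with both groups carrying the same transplanted tumor.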

[1] = dose: 100.0 mg/kg/injection, schedule: Q01DX009 (ip), vehicle: Klucel (hydroxypropylcellulose) (HPC)
[2] = dose: 200.0 mg/kg/injection, schedule: Q01DX009 (ip), vehicle: Klucel (hydroxypropylcellulose) (HPC)
[3] = dose: 400.0 mg/kg/injection, schedule: Q01DX009 (ip), vehicle: Klucel (hydroxypropylcellulose) (HPC)
[4] = dose: 100.0 mg/kg/injection, schedule: Q01DX009 (ip), vehicle: saline with Tween-80
[5] = dose: 100.0 mg/kg/injection, schedule: Q04DX003 (ip), vehicle: saline with Tween-80
[6] = dose: 200.0 mg/kg/injection, schedule: Q01DX009 (ip), vehicle: saline with Tween-80
[7] = dose: 400.0 mg/kg/injection, schedule: Q01DX009 (ip), vehicle: saline with Tween-80
[8] = dose: 100.0 mg/kg/injection, schedule: Q04DX003 (ip), vehicle: Klucel (hydroxypropylcellulose) (HPC)
[9] = dose: 200.0 mg/kg/injection, schedule: Q04DX003 (ip), vehicle: Klucel (hydroxypropylcellulose) (HPC)
[10] = dose: 400.0 mg/kg/injection, schedule: Q04DX003 (ip), vehicle: Klucel (hydroxypropylcellulose) (HPC)

## C#CC1(OCC(O)CO)CCCCC1 (centres undefined)
dose: 25.0 mg/kg/injection, schedule: Q01DX009 (ip), vehicle: water
  T/C: 115 % of control
dose: 50.0 mg/kg/injection, schedule: Q01DX009 (ip), vehicle: water
  T/C: 110 % of control
dose: 100.0 mg/kg/injection, schedule: Q01DX009 (ip), vehicle: water
  T/C: 100 % of control
dose: 200.0 mg/kg/injection, schedule: Q01DX009 (ip), vehicle: water
  T/C: 97 % of control

## CCC(CO)NC(=O)/C=C/c1cc(OC)ccc1OC (centres undefined)
dose: 150.0 mg/kg/injection, schedule: Q04DX003 (ip), vehicle: saline with Tween-80
  T/C: 111 % of control
dose: 300.0 mg/kg/injection, schedule: Q04DX003 (ip), vehicle: saline with Tween-80
  T/C: 102 % of control
dose: 600.0 mg/kg/injection, schedule: Q04DX003 (ip), vehicle: saline with Tween-80
  T/C: 109 % of control

## O=C1CC(Nc2ccccc2)C(=O)N1c1cccc2ccccc12 (centres undefined)
[1]
  T/C: 102 % of control
[2]
  T/C: 96 % of control
[3]
  T/C: 91 % of control

## [N-]=[N+]=Nc1c2ccccc2nc2ccccc12
dose: 2.0 mg/kg/injection, schedule: Q01DX001 (ip), vehicle: saline
  T/C: 92 % of control
dose: 4.0 mg/kg/injection, schedule: Q01DX001 (ip), vehicle: saline
  T/C: 94 % of control
dose: 8.0 mg/kg/injection, schedule: Q01DX001 (ip), vehicle: saline
  T/C: 103 % of control

## O=C1COC(=O)N1
dose: 100.0 mg/kg/injection, schedule: Q01DX009 (ip), vehicle: saline
  T/C: 100 % of control
dose: 200.0 mg/kg/injection, schedule: Q01DX009 (ip), vehicle: saline
  T/C: 100 % of control
dose: 400.0 mg/kg/injection, schedule: Q01DX009 (ip), vehicle: saline
  T/C: 100 % of control

## OCC1(CO)CCC=CO1
dose: 50.0 mg/kg/injection, schedule: Q01DX001 (ip), vehicle: carboxymethylcellulose (CMC)
  T/C: 113 % of control
dose: 100.0 mg/kg/injection, schedule: Q01DX001 (ip), vehicle: carboxymethylcellulose (CMC)
  T/C: 100 % of control
dose: 200.0 mg/kg/injection, schedule: Q01DX001 (ip), vehicle: carboxymethylcellulose (CMC)
  T/C: 100 % of control
dose: 400.0 mg/kg/injection, schedule: Q01DX001 (ip), vehicle: carboxymethylcellulose (CMC)
  T/C: 97 % of control

## CCC(O)C(CCN(C)C)(C(=O)N(C)C)c1ccccc1 (centres undefined)
dose: 75.0 mg/kg/injection, schedule: Q01DX001 (ip), vehicle: saline
  T/C: 98 % of control
dose: 150.0 mg/kg/injection, schedule: Q01DX001 (ip), vehicle: saline
  T/C: 100 % of control

## CSc1ccc(OC(=O)Nc2ccc(Cl)cc2)cc1
dose: 100.0 mg/kg/injection, schedule: Q01DX001 (ip), vehicle: saline with Tween-80
  T/C: 95 % of control
[4]
  T/C: 104 % of control and 106 % of control
dose: 100.0 mg/kg/injection, schedule: Q04DX002 (ip), vehicle: Klucel (hydroxypropylcellulose) (HPC)
  T/C: 103 % of control
dose: 100.0 mg/kg/injection, schedule: Q04DX002 (ip), vehicle: saline with Tween-80
  T/C: 98 % of control
[5]
  T/C: 93 % of control
dose: 200.0 mg/kg/injection, schedule: Q01DX001 (ip), vehicle: saline with Tween-80
  T/C: 106 % of control
[6]
  T/C: 102 % of control and 104 % of control
dose: 200.0 mg/kg/injection, schedule: Q04DX002 (ip), vehicle: Klucel (hydroxypropylcellulose) (HPC)
  T/C: 103 % of control
dose: 200.0 mg/kg/injection, schedule: Q04DX002 (ip), vehicle: saline with Tween-80
  T/C: 90 % of control
dose: 200.0 mg/kg/injection, schedule: Q04DX003 (ip), vehicle: saline with Tween-80
  T/C: 95 % of control
dose: 400.0 mg/kg/injection, schedule: Q01DX001 (ip), vehicle: saline with Tween-80
  T/C: 90 % of control
[7]
  T/C: 100 % of control and 117 % of control
dose: 400.0 mg/kg/injection, schedule: Q04DX002 (ip), vehicle: Klucel (hydroxypropylcellulose) (HPC)
  T/C: 92 % of control
dose: 400.0 mg/kg/injection, schedule: Q04DX002 (ip), vehicle: saline with Tween-80
  T/C: 98 % of control
dose: 400.0 mg/kg/injection, schedule: Q04DX003 (ip), vehicle: saline with Tween-80
  T/C: 98 % of control

## O=[N+]([O-])c1ccc(C=Nc2ccccc2CO)s1
[8]
  T/C: 103 % of control
[9]
  T/C: 104 % of control
[10]
  T/C: 93 % of control

## Cc1ccc(S(=O)(=O)N(C)c2cc(Cl)c(C(=O)O)cc2Cl)cc1
dose: 100.0 mg/kg/injection, schedule: Q04DX003 (ip), vehicle: acetone
  T/C: 90 % of control
dose: 200.0 mg/kg/injection, schedule: Q04DX003 (ip), vehicle: acetone
  T/C: 93 % of control
dose: 400.0 mg/kg/injection, schedule: Q04DX003 (ip), vehicle: acetone
  T/C: 90 % of control

## O=[N+]([O-])c1ccc2c(c1)C(C(Cl)(Cl)Cl)OC(C(Cl)(Cl)Cl)O2 (centres undefined)
[1]
  T/C: 95 % of control
[8]
  T/C: 96 % of control
[2]
  T/C: 95 % of control
[9]
  T/C: 93 % of control
[3]
  T/C: 95 % of control
[10]
  T/C: 95 % of control

## CCOC(=O)c1ccc(NC(=O)Sc2cccc(C)c2)cc1
[8]
  T/C: 93 % of control
[9]
  T/C: 97 % of control
[10]
  T/C: 96 % of control

## CNCCC=C1c2ccccc2CCc2ccccc21
dose: 3.12 mg/kg/injection, schedule: Q01DX009 (ip), vehicle: saline
  T/C: 101 % of control
dose: 6.25 mg/kg/injection, schedule: Q01DX009 (ip), vehicle: saline
  T/C: 101 % of control
dose: 12.5 mg/kg/injection, schedule: Q01DX009 (ip), vehicle: saline
  T/C: 106 % of control
dose: 25.0 mg/kg/injection, schedule: Q01DX009 (ip), vehicle: saline
  T/C: 106 % of control
dose: 25.0 mg/kg/injection, schedule: Q04DX003 (ip), vehicle: saline
  T/C: 96 % of control
dose: 50.0 mg/kg/injection, schedule: Q01DX009 (ip), vehicle: saline
  T/C: 117 % of control
dose: 50.0 mg/kg/injection, schedule: Q04DX003 (ip), vehicle: saline
  T/C: 96 % of control

## C[C@H](CCC(=O)O)[C@H]1CC[C@H]2[C@@H]3[C@H](O)C[C@@H]4C[C@H](O)CC[C@]4(C)[C@H]3C[C@H](O)[C@]12C (tested in a mixture with another compound)
dose: 37.5 mg/kg/injection, schedule: Q01DX009 (ip), vehicle: saline
  T/C: 107 % of control
dose: 50.0 mg/kg/injection, schedule: Q04DX003 (ip), vehicle: other
  T/C: 105 % of control
dose: 75.0 mg/kg/injection, schedule: Q01DX009 (ip), vehicle: saline
  T/C: 111 % of control
dose: 77.0 mg/kg/injection, schedule: Q01DX Z (ip), vehicle: methylcellulose (MC)
  T/C: 105 % of control
dose: 80.0 mg/kg/injection, schedule: Q01DX009 (ip), vehicle: other
  T/C: 97 % of control
dose: 80.0 mg/kg/injection, schedule: Q01DX009 (ip), vehicle: saline
  T/C: 115 % of control
dose: 80.0 mg/kg/injection, schedule: Q01DX Z (ip), vehicle: saline
  T/C: 111 % of control
dose: 100.0 mg/kg/injection, schedule: Q01DX001 (ip), vehicle: alcohol
  T/C: 96 % of control
dose: 100.0 mg/kg/injection, schedule: Q04DX003 (ip), vehicle: other
  T/C: 97 % of control
dose: 116.0 mg/kg/injection, schedule: Q01DX Z (ip), vehicle: methylcellulose (MC)
  T/C: 115 % of control
dose: 120.0 mg/kg/injection, schedule: Q01DX009 (ip), vehicle: other
  T/C: 118 % of control
dose: 120.0 mg/kg/injection, schedule: Q01DX Z (ip), vehicle: saline
  T/C: 152 % of control
dose: 150.0 mg/kg/injection, schedule: Q01DX009 (ip), vehicle: saline
  T/C: 88 % of control
dose: 180.0 mg/kg/injection, schedule: Q01DX009 (ip), vehicle: other
  T/C: 115 % of control
dose: 180.0 mg/kg/injection, schedule: Q01DX Z (ip), vehicle: methylcellulose (MC)
  T/C: 115 % of control
dose: 180.0 mg/kg/injection, schedule: Q01DX Z (ip), vehicle: saline
  T/C: 179 % of control
dose: 198.0 mg/kg/injection, schedule: Q04DX003 (ip), vehicle: other
  T/C: 115 % of control
dose: 200.0 mg/kg/injection, schedule: Q01DX001 (ip), vehicle: alcohol
  T/C: 92 % of control
dose: 200.0 mg/kg/injection, schedule: Q04DX003 (ip), vehicle: other
  T/C: 105 % of control
dose: 263.0 mg/kg/injection, schedule: Q01DX Z (ip), vehicle: methylcellulose (MC)
  T/C: 96 % of control
dose: 270.0 mg/kg/injection, schedule: Q01DX Z (ip), vehicle: saline
  T/C: 114 % of control

## COC(=O)Nc1cccc(OC(=O)NCC(C)C)c1
[4]
  T/C: 87 % of control
[6]
  T/C: 91 % of control
[7]
  T/C: 96 % of control

## C=C(c1cn(C(C)=O)c2ccccc12)c1cn(C(C)=O)c2ccccc12
[5]
  T/C: 95 % of control
